What was measured:
[1] = test system: influenza B Yamagata (B/Paris/234/2013) virus; experiment: Plaque-Forming Units assay, BEAS-2B cells infected with IBV; assay type: cell-based; conditions: 3.4 mM for 16 h from 4 h post-infection
[2] = test system: IL-6 production; experiment: hIL-6 ELISA in supernatants of IAV-infected BEAS-2B cells; assay type: cell-based, human
[3] = test system: CCL2/MCP-1, CCL5/RANTES, CXCL1/GROa, CXCL10/IP-10, IL-6 and CXCL8/IL-8; experiment: Protein-array of immune mediators in supernatants of IAV-infected BEAS-2B cells; assay type: cell-based, human; conditions: 3.4 mM
[4] = test system: NF-kB activity / TNFα secretion; experiment: Murine model of acute lung injury induced by lipopolysaccharide; assay type: in vivo, mice; conditions: 10 μg LPS
Procedure: NF-kB transgenic Balb/c (FIG. 11a, 11b) or C57Bl/6 (FIG. 11c) mice were instilled with 10 μg of lipopolysaccharides (LPS) and treated 15 minutes post-stimulation with 0.6 mg of cis-aconitate (CA) intranasally. 24 h post-instillation, mice were anesthetized. In the group of NF-kB transgenic Balb/c animals, luciferine was intranasally instilled (0.75 mg·kg^−1) and bioluminescence was measured using the IVIS imaging system (FIG. 11a, 11b). In the group of C57Bl/6 mice, BALs fluids were collected to determine TNFα levels (FIG. 11c).). Bioluminescence was then measured using the IVIS system. […] Statistical analysis was performed using the Mann-Whitney test.
Then, we further examined the anti-inflammatory effect of cis-aconitate administered intranasally in a valuable murine model of acute lung injury induced by lipopolysaccharide ([63]), a cell wall component characteristic of Gram-negative bacteria.

[5] = test system: Wuhan strain of SARS-CoV-2; experiment: IL-6 ELISA in Vero epithelial cells infected with SARS-CoV-2 Wuhan strain; assay type: cell-based; conditions: MOI=1, 1 mg/ml cis-aconitate for 16 hours from 4 h post-infection
[6] = test system: IAV-triggered cell death; assay type: cell-based, human
[7] = 0.6 mg intranasally every second day for 15 days
[8] = test system: IL-6 production; experiment: IL-6 ELISA in PBEC (IAV, poly(I:C) or PMA); assay type: cell-based, human
[9] = test system: BEAS-2B cells; experiment: BEAS-2B tolerance: Ki67, mitotracker, DHR 123 and Live Dead staining; assay type: cell-based, human
Procedure: (FIG. 8a) Human bronchial epithelial BEAS-2B cells were treated with PBS or with 3.4 mM of cis-aconitate (CA), itaconate (Ita), oxaloacetate (Oxa), isocitrate (IsoC), citrate (Cit), fumarate (Fum), pyruvate (Pyr) or glucose (Glc) for 16 h and cytotoxicity was assessed by MTS assay. BEAS-2B cells were treated (CA+) or not (CA-) with 3.4 mM of CA for 6 or 24 h (FIG. 8b, 8c, 8d) or with 0, 1.2, 2.3 or 3.4 mM of CA for 20 h (FIG. 8e). Cell proliferation (FIG. 8b), mitochondrial labeling (FIG. 8c), ROS production (FIG. 8d) and cell viability (FIG. 8e) were analyzed by Ki67, mitotracker, DHR 123 and Live Dead staining respectively. (FIG. 8f) Human primary bronchial epithelial cells (PBEC) were treated with 0.6, 3.4 or 5.7 mM CA for 16 h and cytotoxicity was assessed by a MTS test. Data are represented as mean±/−SEM of 4 (FIG. 8b-f) or 5 (FIG. 8a) independent experiments. Statistical analysis was performed using the Kruskal-Wallis test with Dunn's multiple comparison test (FIGS. 8a, 8e and 8f) or Friedman test with Dunn's multiple comparison test (FIG. 8b-8d).
Cell proliferation and cytotoxicity assays. Cells in 96-well plates were washed twice with PBS and incubated for 1 h at 37° C. with 100 μL of MTS reagent diluted 1/5 for the cell proliferation test. Optical density was measured at 490 nm. For the cytotoxicity assay, cells were stained for 15 min at 4° C. with Live/Dead or with anti-Ki67, mitotracker and […] flow cytometry analysis.

[10] = test system: Delta strain of SARS-CoV-2; assay type: cell-based
[11] = test system: IL-6 production; experiment: IL-6 ELISA in BEAS-2B cells stimulated with inflammatory agonists (PIC, PMA, TNFα); assay type: cell-based, human; conditions: increasing doses of CA 16 h
[12] = test system: influenza A/pandemic/2009 H1N1 (H1N1p) strain; assay type: cell-based, influenza A virus
[13] = test system: IL-6 production; experiment: hIL-6 in IAV-infected human precision-cut lung slices (PCLS); assay type: cell-based; conditions: 3.4 mM CA 2 hpi, 48 hpi
[14] = test system: A/Puerto Rico/8/1934 H1N1 (PR8) virus; assay type: cell-based, influenza A virus
[15] = target: viral polymerase (Influenza A virus, UniProt P03427+P03430+P15659); assay type: cell-based
[16] = test system: ERK, AKT and NF-κB signaling pathways; experiment: Western blotting of phosphorylated ERK1/2, AKT and p65 in BEAS-2B cells; assay type: cell-based, human

## O=C(O)/C=C(/CC(=O)O)C(=O)O [cis-aconitate]
[1]
  viral particles production (PFU): at least one log decrease
[2]; BEAS-2B stimulated with IAV MOI=1, increasing doses of CA 16 h
  IL-6 production, dose-dependent: significant decrease
[2]; BEAS-2B, IAV MOI=1, 3.4 mM for 16 h
  IL-6 production of IAV-infected epithelial cells: reduced
[3]
  IAV-induced expression of CCL2/MCP-1, CCL5/RANTES, CXCL1/GROa, CXCL10/IP-10, IL-6 and CXCL8/IL-8: inhibited
[4]; C57Bl/6 mice, 0.6 mg CA intranasally, 24 h
  TNFα secretion in the BAL fluids: significantly decreased
[4]; NF-kB transgenic Balb/c mice, 0.6 mg CA intranasally 15 minutes post-stimulation, 24 hours
  LPS-induced inflammation (NF-kB bioluminescence): markedly reduced
[5]
  IL-6 production: significant reduction
[6]
  reduction in SYTOX labeling (dead cells): approximately 70%
[7]
  adverse effects: no adverse effects
[7]; day 0, 7, 14
  overall fecal microbial composition (Aitchison distance): no differences
[8]
  reduction of IAV-induced hIL-6 production: up to 80%
[8]; PBEC, PMA 4 h, then CA 20 h
  pro-inflammatory cytokine (IL-6) expression induced by PMA: dose-dependent decrease
[8]; PBEC, poly(I:C) 4 h, then CA 20 h
  pro-inflammatory cytokine (IL-6) expression induced by PIC: dose-dependent decrease
[9]; BEAS-2B, 0, 1.2, 2.3 or 3.4 mM, 20 h
  cell viability (Live Dead): did not impact
[9]; BEAS-2B, 3.4 mM, 6 or 24 h
  ROS production (DHR 123): did not impact
  cell proliferation (Ki67): did not impact
  mitochondria accumulation (mitotracker): did not impact
[10]
  IL-6 production: significant reduction
[11]; BEAS-2B stimulated with 20 ng/ml TNFα
  IL-6 production, dose-dependent: trend
[11]; BEAS-2B stimulated with 50 nM PMA
  IL-6 production, dose-dependent: significant decrease
[11]; BEAS-2B stimulated with 2 μg/mL Poly (I:C)
  IL-6 production, dose-dependent: significant decrease
[12]
  viral particles production (PFU): at least one log decrease
[13]
  reduction in IL-6 production: twofold
[14]
  viral particles production (PFU): at least one log decrease
[15]
  luciferase activity versus concentration: dose-dependent decrease
  reduction of luciferase activity (viral polymerase activity): ~ 75%
[16]
  ERK, AKT and NF-κB signaling pathways: reductions
  accumulation of phosphorylated ERK1/2, Akt and p65: inhibited
